Drawing on patent US6063789A, “Aminoisoquinolines and aminotheinopyridine derivatives and their use as anti-inflammatory agents” (priority 1996, dated 2000), this text covers IC50 and antihypertensive activity for 5 molecules.

Counter-ions that a name gives are not always drawn.

Test [1] concerns the target T1, inducible isoform of the enzyme nitric oxide synthase (NOS) (Mus musculus, UniProt P29477).
T1 construct: Nitric oxide synthase is produced by cells in response to interferon-g (IFNg) and lipopolysaccharide (LPS); endogenous in cells; host or cells: J774A-1 murine macrophage cell line, induced with LPS and IFN-gamma; crude cell lysate
Description: nitric oxide synthetase activity screen (conversion of 3H-L-arginine to 3H-L-citrulline by lysate of induced J774A-1 macrophages). The settings on record: lysate of LPS/IFNg-induced murine macrophage J774A-1 cells; 1 hour at room temperature; read-out: IC50 (the concentration of drug substance which gives 50% enzyme inhibition in the assay). Format: biochemical.
Description: The activity of compounds according to the invention was tested in the following screen.
The activity of compounds of formula I, or a pharmaceutically acceptable salt, enantiomer or tautomer thereof, may be screened for nitric oxide synthetase activity by a procedure based on that of Forstennann et al. (1992) Eur. J. Pharm. […] Nitric oxide synthetase converts ^3 H-L-arginine to ^3 H-L-citrulline which can be separated by cation exchange chromatography and quantified by liquid scintillation counting.
Enzyme is prepared, after induction, from the cultured murine macrophage cell line J774A-1 (obtained from the laboratories of the Imperial Cancer Research Fund). J774A-1 cells are cultured in Dulbeccos Modified Eagles Medium (DMEM) supplemented with 10% foetal bovine serum, 4 mM L-glutamine and antibiotics (100 units/ml penicillin G, 100 mg/ml streptomycin & 0.25 mg/ml amphotericin B). Cells are routinely grown in 225 cm^2 flasks containing 35 ml medium kept at 37° C. and in a humidified atmosphere containing 5% CO2. Nitric oxide synthase is produced by cells in response to interferon-g (IFNg) and lipopolysaccharide (LPS). The medium from confluent culture flasks is removed and replaced with 25 ml (per flask) of fresh medium containing 1 mg/ml LPS and 10 units/ml IFNg. After a period of 17-20 hours in culture, harvesting of cells is accomplished by scraping the cell sheet from the flask surface into the culture medium. Cells are collected by centrifugation (1000 g for 10 minutes) and lysate prepared by adding to the cell pellet a solution containing 50 mM Tris-HCl (pH 7.5 at 20° C.), 10% (v/v) glycerol, 0.1% (v/v) Triton-X-100, 0.1 mM dithiothreitol and a cocktail of protease inhibitors comprising leupeptin (2 mg/ml), soya bean trypsin inhibitor (10 mg/ml), aprotinin (5 mg/ml) & phenylmethylsulphonyl fluoride (50 mg/ml).
For the assay, 25 μl substrate cocktail (50 mM Tris-HCl (pH 7.5 at 20° C.), 400 μM NADPH, 20 μM flavin adenine dinucleotide, 20 μM flavin mononucleotide, 4 μM tetrahydrobiopterin, 12 μM L-arginine and 0.025 mCi L-[^3 H] arginine) is added to wells of a 96 well filter plate (0.45 μM pore size) containing 25 μl of a solution of test compound in 50 mM Tris-HCl. The reaction is started by adding 50 μl of cell lysate (prepared as above) and after incubation for 1 hour at room temperature is terminated by addition of 50 μl of an aqueous solution of 3 mM nitroarginine and 21 mM EDTA.
Labelled L-citrulline is separated from labelled L-arginine using Dowex AG-SOW. […] After allowing the samples to dry the L-citrulline is quantified by scintillation counting.
Compounds are tested at a range of concentrations and from the inhibitions obtained IC50 values are calculated.

For test [2] the following is noted: cited from J Med. Chem., vol 20, No 3, March 1977, pp 449 to 452; cited from earlier work.

Turning to `C#CC1Cc2ccccc2C(N)=N1` (centres unmarked) [Example 41, 1-Amino-3-ethynyl-3,4-dihydroisoquinoline hydrochloride], in test [1], the IC50 is below 25 µM.
For `NC1=NC(c2ccccc2)Cc2ccccc21` (centres unmarked) [Example 2, 1-Amino-3-phenyl-3,4-dihydroisoquinoline hydrochloride], in test [1], the IC50 was below 25 µM.
Take `NC1=NC(c2nccs2)Cc2ccccc21` (centres unmarked) [Example 46, 1-Amino-3-(2-thiazolyl)-3,4-dihydroisoquinoline hydrochloride]: in test [1], the IC50 is below 25 µM.
`CC1Cc2ccccc2C(N)=N1` (centres unmarked) [Example 49, 1-Amino-3-methyl-3,4-dihydroisoquinoline hydroiodide]: the IC50 in test [1] was below 25 µM.
With `NC1=NCCc2ccccc21` [1-amino-3,4-dihydroisoquinoline], the antihypertensive activity result in test [2] is recorded as “has antihypertensive activity”.
